From ChEMBL document CHEMBL1154382, “Preliminary SAR analysis of novel antiproliferative N(6),5'-bis-ureidoadenosine derivatives” (2009)

Tests used:
Format in all cases: functional
MDA-MB-231 [1] = test: Antiproliferative activity against human MDA-MB-231 cells at 10 uM assessed as cell growth inhibition relative to control; settings: values are per cent of control
SN12C = test: Antiproliferative activity against human SN12C cells at 10 uM assessed as cell growth inhibition relative to control; settings: values are per cent of control
Malme-3M [2] = test: Antiproliferative activity against human MALME-3M cells at 10 uM assessed as cell growth inhibition relative to control; settings: values are per cent of control
TK-10 = test: Antiproliferative activity against human TK10 cells
Malme-3M [3] = test: Antiproliferative activity against human MALME-3M cells
DU-145 [4] = test: Antiproliferative activity against human DU145 cells
SF-295 [5] = test: Antiproliferative activity against human SF295 cells at 10 uM assessed as cell growth inhibition relative to control; settings: values are per cent of control
NCI-H322M = test: Antiproliferative activity against human NCI-H322M cells
COLO 205 [6] = test: Antiproliferative activity against human COLO205 cells at 10 uM assessed as cell growth inhibition relative to control; settings: values are per cent of control
MCF7 = test: Antiproliferative activity against human MCF7 cells
[7] = Antiproliferative activity against human […] cells at 10 uM assessed as cell growth inhibition relative to control; settings: values are per cent of control
HT-29 [8] = test: Antiproliferative activity against human HT-29 cells at 10 uM assessed as cell growth inhibition relative to control; settings: values are per cent of control
DU-145 [9] = test: Antiproliferative activity against human DU145 cells at 10 uM assessed as cell growth inhibition relative to control; settings: values are per cent of control
U-251 [10] = test: Antiproliferative activity against human U251 cells at 10 uM assessed as cell growth inhibition relative to control; settings: values are per cent of control
EKVX [11] = test: Antiproliferative activity against human EKVX cells at 10 uM assessed as cell growth inhibition relative to control; settings: values are per cent of control
CCRF-CEM [12] = test: Antiproliferative activity against human CCRF-CEM cells
U-251 [13] = test: Antiproliferative activity against human U251 cells
BT-549 [14] = test: Antiproliferative activity against human BT549 cells
HL-60(TB) [15] = test: Antiproliferative activity against human HL-60(TB) cells at 10 uM assessed as cell growth inhibition relative to control; settings: values are per cent of control
HOP-92 [16] = test: Antiproliferative activity against human HOP92 cells
IGROV-1 [17] = test: Antiproliferative activity against human IGROV1 cells at 10 uM assessed as cell growth inhibition relative to control; settings: values are per cent of control
NCI-H460 = test: Antiproliferative activity against human NCI-H460 cells
M14 = test: Antiproliferative activity against human M14 cells
NCI-H226 = test: Antiproliferative activity against human NCI-H226 cells at 10 uM assessed as cell growth inhibition relative to control; settings: values are per cent of control
COLO 205 [18] = test: Antiproliferative activity against human COLO205 cells
SK-MEL-2 = test: Antiproliferative activity against human SK-MEL-2 cells
HCT-116 = test: Antiproliferative activity against human HCT116 cells at 10 uM assessed as cell growth inhibition relative to control; settings: values are per cent of control
K562 = test: Antiproliferative activity against human K562 cells
MOLT-4 [19] = test: Antiproliferative activity against human MOLT4 cells
EKVX [20] = test: Antiproliferative activity against human EKVX cells
HT-29 [21] = test: Antiproliferative activity against human HT-29 cells
KM12 [22] = test: Antiproliferative activity against human KM12 cells at 10 uM assessed as cell growth inhibition relative to control; settings: values are per cent of control
SK-MEL-5 = test: Antiproliferative activity against human SK-MEL-5 cells
SF-539 = test: Antiproliferative activity against human SF539 cells at 10 uM assessed as cell growth inhibition relative to control; settings: values are per cent of control
ACHN = test: Antiproliferative activity against human ACHN cells
A498 [23] = test: Antiproliferative activity against human A498 cells
MDA-MB-231 [24] = test: Antiproliferative activity against human MDA-MB-231 cells
SK-OV-3 = test: Antiproliferative activity against human SKOV3 cells
MDA-MB-468 = test: Antiproliferative activity against human MDA-MB-468 cells at 10 uM assessed as cell growth inhibition relative to control; settings: values are per cent of control
CAKI-1 = test: Antiproliferative activity against human Caki1 cells at 10 uM assessed as cell growth inhibition relative to control; settings: values are per cent of control
[25] = Antiproliferative activity against human Hs 578T cells
OVCAR-4 [26] = test: Antiproliferative activity against human OVCAR4 cells
HOP-62 = test: Antiproliferative activity against human HOP62 cells
RXF 393 [27] = test: Antiproliferative activity against human RXF393 cells at 10 uM assessed as cell growth inhibition relative to control; settings: values are per cent of control
A498 [28] = test: Antiproliferative activity against human A498 cells at 10 uM assessed as cell growth inhibition relative to control; settings: values are per cent of control
HOP-92 [29] = test: Antiproliferative activity against human HOP92 cells at 10 uM assessed as cell growth inhibition relative to control; settings: values are per cent of control
CCRF-CEM [30] = test: Antiproliferative activity against human CCRF-CEM cells at 10 uM assessed as cell growth inhibition relative to control; settings: values are per cent of control
SF-268 = test: Antiproliferative activity against human SF268 cells
NCI-H522 = test: Antiproliferative activity against human NCI-H522 cells at 10 uM assessed as cell growth inhibition relative to control; settings: values are per cent of control
[31] = Antiproliferative activity against human Hs 578T cells at 10 uM assessed as cell growth inhibition relative to control; settings: values are per cent of control
MDA-MB-435 = test: Antiproliferative activity against human MDA-MB-435 cells
HL-60(TB) [32] = test: Antiproliferative activity against human HL-60(TB) cells
LOX IMVI = test: Antiproliferative activity against human LOXIMVI cells
SW-620 = test: Antiproliferative activity against human SW620 cells at 10 uM assessed as cell growth inhibition relative to control; settings: values are per cent of control
IGROV-1 [33] = test: Antiproliferative activity against human IGROV1 cells
786-0 = test: Antiproliferative activity against human 786-0 cells
[34] = Antiproliferative activity against human […] cells
BT-549 [35] = test: Antiproliferative activity against human BT549 cells at 10 uM assessed as cell growth inhibition relative to control; settings: values are per cent of control
RXF 393 [36] = test: Antiproliferative activity against human RXF393 cells
MOLT-4 [37] = test: Antiproliferative activity against human MOLT4 cells at 10 uM assessed as cell growth inhibition relative to control; settings: values are per cent of control
OVCAR-4 [38] = test: Antiproliferative activity against human OVCAR4 cells at 10 uM assessed as cell growth inhibition relative to control; settings: values are per cent of control
SF-295 [39] = test: Antiproliferative activity against human SF295 cells
A549 = test: Antiproliferative activity against human A549 cells
KM12 [40] = test: Antiproliferative activity against human KM12 cells

Compound `CCOC(=O)C[C@H]1[C@@H](O[Si](C)(C)C(C)(C)C)[C@H](n2cnc3c(NC(=O)Nc4ccccc4)ncnc32)O[C@@H]1COC(=O)NC` has a growth, % of control at 10 µM (MDA-MB-231 [1]) of 72%, a growth, % of control at 10 µM (SN12C) of 35% and a growth, % of control at 10 µM (Malme-3M [2]) of 54%. The GI50 (TK-10) was 10.7 µM, the GI50 (Malme-3M [3]) was 3.34 µM and the GI50 (DU-145 [4]) was 5.21 µM. The growth, % of control at 10 µM (SF-295 [5]) was 66%, the GI50 (NCI-H322M) was 31.7 µM and the growth, % of control at 10 µM (COLO 205 [6]) was 67%. The GI50 (MCF7) was 3.37 µM, the growth, % of control at 10 µM [7] was 39% and the growth, % of control at 10 µM (HT-29 [8]) was 9%. For the same compound, the growth, % of control at 10 µM (DU-145 [9]) was 59%, the growth, % of control at 10 µM (U-251 [10]) was 52% and the growth, % of control at 10 µM (EKVX [11]) was 68%. The GI50 (CCRF-CEM [12]) was 3.23 µM, the GI50 (U-251 [13]) was 7.57 µM and the GI50 (BT-549 [14]) was 2.07 µM. For the same compound, the growth, % of control at 10 µM (HL-60(TB) [15]) was 23%, the GI50 (HOP-92 [16]) was 6.52 µM and the growth, % of control at 10 µM (IGROV-1 [17]) was 49%. It also gave a GI50 (NCI-H460) of 4.45 µM, a GI50 (M14) of 6.37 µM and a growth, % of control at 10 µM (NCI-H226) of 56%. The GI50 (COLO 205 [18]) was 7.7 µM, the GI50 (SK-MEL-2) was 13.2 µM and the growth, % of control at 10 µM (HCT-116) was 17%. The GI50 (K562) was 3.09 µM, the GI50 (MOLT-4 [19]) was 1.99 µM and the GI50 (EKVX [20]) was 3.39 µM. The GI50 (HT-29 [21]) was 3.97 µM, the growth, % of control at 10 µM (KM12 [22]) was 31% and the GI50 (SK-MEL-5) was 5.7 µM. For the same compound, the growth, % of control at 10 µM (SF-539) was 33%, the GI50 (ACHN) was 5.92 µM and the GI50 (A498 [23]) was 4.65 µM. The GI50 (MDA-MB-231 [24]) was 17.5 µM, the GI50 (SK-OV-3) was 40.4 µM and the growth, % of control at 10 µM (MDA-MB-468) was 62%. For the same compound, the growth, % of control at 10 µM (CAKI-1) was 61%, the GI50 [25] was 3.39 µM and the GI50 (OVCAR-4 [26]) was 10.7 µM. The GI50 (HOP-62) was 14.7 µM, the growth, % of control at 10 µM (RXF 393 [27]) was 35% and the growth, % of control at 10 µM (A498 [28]) was 77%. For the same compound, the growth, % of control at 10 µM (HOP-92 [29]) was 62%, the growth, % of control at 10 µM (CCRF-CEM [30]) was 57% and the GI50 (SF-268) was 5.06 µM. For the same compound, the growth, % of control at 10 µM (NCI-H522) was 45%, the growth, % of control at 10 µM [31] was 57% and the GI50 (MDA-MB-435) was 3.26 µM. It also gave a GI50 (HL-60(TB) [32]) of 0.00139 µM, a GI50 (LOX IMVI) of 7.78 µM and a growth, % of control at 10 µM (SW-620) of 72%. The GI50 (IGROV-1 [33]) was 13.7 µM, the GI50 (786-0) was 7.94 µM and the GI50 [34] was 2.16 µM. The growth, % of control at 10 µM (BT-549 [35]) was 65%, the GI50 (RXF 393 [36]) was 2.94 µM and the growth, % of control at 10 µM (MOLT-4 [37]) was 34%. The growth, % of control at 10 µM (OVCAR-4 [38]) was 42%, the GI50 (SF-295 [39]) was 2.83 µM and the GI50 (A549) was 6.93 µM. It also gave a GI50 (KM12 [40]) of 3.21 µM.
